Reference: patent US10537541B2, “Treatment of focal segmental glomerular sclerosis (FSGS) using therapeutically effective oral doses of 10-nitro-9(E)-octadec-9-enoic acid” (Complexa, Inc., priority 2015, dated 2020)

Test system: deoxycorticosterone acetate (DOCA)/salt-induced model of FSGS
Test: DOCA salt study: urinary isoprostane and tetranor-PGDM by LC-MS
Assay type: in vivo, mice (129/sv strain)
Conditions: DOCA/salt mice
Method: Induction of model: Male mice (129/sv strain) were purchased from Taconic Labs. The animals were uninephrectomized (Unx) at 6 weeks of age by the vendor and shipped one week after surgery. At 2 weeks post Unx, a DOCA or placebo pellet (21-day release pellets, 50 mg/pellet, Innovative Research of America, Sarasota, Fla.) was implanted s.c. All mice were then placed on a semisynthetic diet which contained a moderate fat content and a low phytoestrogen/anti-oxidant level, which approximates a normal human diet (4). A second DOCA or placebo pellet was implanted three weeks later.
Treatment: Mice were treated with placebo, 10-nitro-9(E)-octadec-9-enoic acid at a dose of 2.5 and 12.5 mg/kg, or enalapril (standard of care) for 4 weeks by oral gavage starting 2 weeks after the first DOCA implantation. One percent NaCl in tap water was given to each group except the sham control group. Body weight was measured weekly, and doses were readjusted based on the current body weight. Urine and blood samples were collected prior to treatment and at week 2 and 4 of treatment. Mice were terminated at week 4. Data is presented as the mean+SEM for the number of animals listed in each group.
Isoprostanes are a unique series of prostaglandin-like compounds formed in vivo via a non-enzymatic mechanism involving the free radical-initiated peroxidation of arachidonic acid. It has been shown that 8-iso-PGF2a (15-F2t-isoprostane) is the isoprostane that correlates best with increasing oxidative stress. Therefore, to assess the effect of treatment on oxidative stress, this isoform was measured using LC-MS. Also measured was tetranor-PGDM, a urinary metabolite of prostaglandin D2. […] On the other hand, elevated tetranor-PGDM was lowered with treatment of 10-nitro-9(E)-octadec-9-enoic acid and enalapril at the end time point (FIG. 18).

CCCCCCCC/C(=C\CCCCCCCC(=O)O)[N+](=O)[O-] [CXA-10, 10-nitro-9(E)-octadec-9-enoic acid]
urinary tetranor-PGDM (end time point): lowered | urinary 8-iso-PGF2a, compared with the high dose or enalapril (low dose 2.5 mg/kg, not statistically significant): trended to have a greater reduction
